Some test systems named below: M07e; CMK; CMS; ML-2; U937; CHRF288-11; MOLM-13; MV4-11.
Set-up in all cases: species or system AML cell lines (8); Primary HTS, single concentration about 10 uM, Cell Titer Glo viability; log10 luminescence, per cent inhibition relative to cycloheximide control
What all share (conditions): 72 h, relative to cycloheximide control, log10 luminescence, inhibitor
For orientation: In ATP-based viability assays light output follows the ATP content of the culture.

SMILES strings stand for the structures. Where two headings read alike, the source gives them in different places.

For `CC=CC1=C(C(=O)O)N2C(=O)[C@@H](NC(=O)[C@H](N)c3ccc(O)cc3)[C@H]2SC1` [SJ000565172-1, CEFPROZIL], in the assay on M07e (M07e %inh, 10 µM), the M07e %inh is given as -0.1553%. Also, in the assay with CMK (CMK %inh, 10 µM), the CMK %inh was -2.483%. For the same compound, the CMS %inh in the assay on CMS (CMS %inh, 10 µM) is listed as -1.599%. For the same compound, in the assay on ML-2 (ML-2 %inh, 10 µM), the ML-2 %inh was -0.9482%. For the same compound, the U937 %inh with U937 (U937 %inh, 10 µM) came to 0.9255%. The CHRF288-11 %inh in the assay on CHRF288-11 (CHRF288-11 %inh, 10 µM) is -2.763%. The MOLM-13 %inh with MOLM-13 (MOLM-13 %inh, 10 µM) is 3.181%. Also, in the assay with MV4-11 (MV4-11 %inh, 10 µM), the MV4-11 %inh is 3.254%.
On to `CC=CC1=C(C(=O)O)N2C(=O)[C@@H](NC(=O)[C@H](N)c3ccc(O)cc3)[C@H]2SC1` [SJ000565172-2, CEFPROZIL], for which, in the assay on M07e (M07e %inh, 10 µM), the M07e %inh is recorded as -4.985%. Moreover, the CMK %inh in the assay on CMK (CMK %inh, 10 µM) was found to be 1.641%. Also, the CMS %inh with CMS (CMS %inh, 10 µM) is recorded as -3.774%. Besides, the ML-2 %inh in the assay with ML-2 (ML-2 %inh, 10 µM) was -1.058%. Besides, the U937 %inh with U937 (U937 %inh, 10 µM) is on record as -2.74%. The CHRF288-11 %inh in the assay with CHRF288-11 (CHRF288-11 %inh, 10 µM) is given as -7.818%. Further, in the assay on MOLM-13 (MOLM-13 %inh, 10 µM), the MOLM-13 %inh is recorded as 0.07702%. Also, in the assay with MV4-11 (MV4-11 %inh, 10 µM), the MV4-11 %inh is 1.013%.
`CC=CC1=C(C(=O)O)N2C(=O)[C@@H](NC(=O)[C@H](N)c3ccc(O)cc3)[C@H]2SC1` [SJ000565172-3, CEFPROZIL]: the M07e %inh in the assay with M07e (M07e %inh, 10 µM) is -2.148%. In addition, the CMK %inh with CMK (CMK %inh, 10 µM) is recorded as -7.257%. Besides, the CMS %inh in the assay with CMS (CMS %inh, 10 µM) is on record as 0.3567%. In addition, the ML-2 %inh in the assay on ML-2 (ML-2 %inh, 10 µM) was -1.603%. Further, the U937 %inh in the assay with U937 (U937 %inh, 10 µM) was -1.915%. The CHRF288-11 %inh in the assay with CHRF288-11 (CHRF288-11 %inh, 10 µM) is on record as -2.278%. Further, the MOLM-13 %inh with MOLM-13 (MOLM-13 %inh, 10 µM) is -1.663%. In addition, the MV4-11 %inh in the assay on MV4-11 (MV4-11 %inh, 10 µM) is on record as -2.606%.
With `C#C[C@]1(O)CC[C@H]2[C@@H]3CCC4=CCCC[C@@H]4[C@H]3C(=C)C[C@@]21CC` [SJ000565174-1, DESOGESTREL], the M07e %inh in the assay with M07e came to 3.523%. In addition, in the assay on CMK, the CMK %inh was 2.427%. In the assay on CMS, the CMS %inh amounted to 2.249%. The ML-2 %inh with ML-2 is given as 3.09%. In addition, the U937 %inh in the assay with U937 came to 2.771%. Further, in the assay on CHRF288-11, the CHRF288-11 %inh is 1.152%. For the same compound, in the assay with MOLM-13, the MOLM-13 %inh is 0.3348%. For the same compound, in the assay with MV4-11, the MV4-11 %inh is reported as 4.001%.
Regarding `COc1ccc2cc1Oc1cc3c(cc1OC)CC[N+](C)(C)[C@H]3Cc1ccc(cc1)Oc1c(OC)c(OC)cc3c1[C@@H](C2)[N+](C)(C)CC3` [SJ000565179-1, METOCURINE IODIDE], the M07e %inh in the assay with M07e is recorded as -0.367%. Moreover, the CMK %inh in the assay with CMK is -2.411%. Besides, in the assay on CMS, the CMS %inh is on record as -2.545%. Also, the ML-2 %inh in the assay with ML-2 is reported as -0.842%. In the assay with U937, the U937 %inh is -0.03863%. Further, the CHRF288-11 %inh with CHRF288-11 is listed as 0.972%. For the same compound, in the assay on MOLM-13, the MOLM-13 %inh is 0.1471%. Besides, the MV4-11 %inh with MV4-11 is 1.51%.
Turning to `CCOC(=O)C(C)Oc1cccc2c(=O)n(CC(=O)Nc3ccc4c(c3)OCCO4)ccc12` (centres unmarked) [SJ000565608-2, SID 7969543], the M07e %inh with M07e is given as -1.631%. Also, the CMK %inh in the assay on CMK turned out to be 1.565%. For the same compound, the CMS %inh in the assay with CMS was -1.631%. In the assay with ML-2, the ML-2 %inh was 3.909%. Also, the U937 %inh with U937 is listed as -0.5022%. For the same compound, the CHRF288-11 %inh in the assay on CHRF288-11 came out at 4.074%. In the assay on MOLM-13, the MOLM-13 %inh is on record as 1.293%. Also, in the assay on MV4-11, the MV4-11 %inh amounted to 2.255%.
`COc1ccc(-c2ccc3c(N4CCOC[C@@H]4C)nc(N4CCOC[C@@H]4C)nc3n2)cc1CO` [SJ000571306-4, 1009298-09-2 | AZD8055 | | AZD8055]: the M07e %inh with M07e turned out to be 41.99%. In addition, the CMK %inh in the assay with CMK worked out at 103.1%. Further, the CMS %inh in the assay with CMS was determined as 58.27%. Besides, the ML-2 %inh in the assay with ML-2 was 20%. Also, the U937 %inh with U937 worked out at 53.04%. In addition, the CHRF288-11 %inh with CHRF288-11 was 63.41%. Moreover, the MOLM-13 %inh in the assay with MOLM-13 came to 34.83%. Further, the MV4-11 %inh in the assay with MV4-11 was 44.46%.
For `Cc1ccccc1-n1c(Cn2cnc3c(N)ncnc32)nc2cccc(C)c2c1=O` [SJ000571308-2, IC-87114 | PIK 293], the M07e %inh with M07e is reported as -1.447%. Besides, the CMK %inh in the assay with CMK is given as -7.948%. Also, in the assay with CMS, the CMS %inh was -0.8579%. Further, in the assay on ML-2, the ML-2 %inh is 1.318%. Besides, the U937 %inh with U937 amounted to 0.4255%. Moreover, in the assay with CHRF288-11, the CHRF288-11 %inh turned out to be 10.49%. Also, the MOLM-13 %inh in the assay on MOLM-13 was 2.064%. For the same compound, the MV4-11 %inh in the assay on MV4-11 is on record as 3.81%.
As to `Fc1cccc(COc2ccc(Nc3ncnc4sc(-c5ccco5)cc34)cc2Cl)c1` [SJ000573002-1, U22476/39/2], the M07e %inh in the assay on M07e was -3.433%. In addition, the CMK %inh in the assay on CMK is listed as -2.703%. Besides, in the assay on CMS, the CMS %inh stood at 0.3499%. Besides, the ML-2 %inh with ML-2 worked out at 0.9644%. Further, the U937 %inh with U937 turned out to be 0.5844%. In addition, the CHRF288-11 %inh in the assay on CHRF288-11 was -4.95%. Also, the MOLM-13 %inh in the assay with MOLM-13 is given as -2.902%. For the same compound, in the assay with MV4-11, the MV4-11 %inh is reported as -1.439%.
On to `COc1cc2ncn(-c3cc(O[C@@H](C)c4ccccc4Cl)c(C(N)=O)s3)c2cc1OC` [SJ000573003-1, U20723/53/1 | U20723/56/1], for which, in the assay with M07e, the M07e %inh turned out to be 89.94%. In the assay with CMK, the CMK %inh came to 79.08%. For the same compound, the CMS %inh with CMS amounted to 40.55%. The ML-2 %inh in the assay on ML-2 amounted to 43.99%. For the same compound, the U937 %inh in the assay with U937 is recorded as 74.14%. Also, the CHRF288-11 %inh with CHRF288-11 is on record as 52.73%. The MOLM-13 %inh with MOLM-13 worked out at 83.64%. Besides, the MV4-11 %inh with MV4-11 is reported as 67.89%.
Consider `COc1cc2ncn(-c3cc(O[C@H](C)c4ccccc4Cl)c(C(N)=O)s3)c2cc1OC` [SJ000573003-2, U20723/53/1 | U20723/56/1], for which the M07e %inh in the assay on M07e is reported as 88.84%. Also, the CMK %inh in the assay on CMK came to 110.4%. Also, the CMS %inh in the assay on CMS stood at 80.13%. In addition, in the assay on ML-2, the ML-2 %inh is recorded as 11.11%. Besides, the U937 %inh in the assay with U937 was 82.96%. In addition, the CHRF288-11 %inh with CHRF288-11 worked out at 41.02%. In addition, the MOLM-13 %inh with MOLM-13 is reported as 108.1%. For the same compound, the MV4-11 %inh with MV4-11 came out at 78.95%.
Consider `CS(=O)(=O)CCNCc1ccc(-c2ccc3ncnc(Nc4ccc(OCc5ccccc5)c(Cl)c4)c3c2)o1` [SJ000573004-1, U12816/179/1], for which the M07e %inh in the assay on M07e is recorded as -1.936%. In addition, the CMK %inh with CMK came out at 1.726%. The CMS %inh in the assay on CMS was -1.14%. For the same compound, the ML-2 %inh in the assay on ML-2 came out at 2.349%. In addition, in the assay with U937, the U937 %inh is recorded as -2.727%. The CHRF288-11 %inh in the assay on CHRF288-11 worked out at 2.861%. Besides, in the assay on MOLM-13, the MOLM-13 %inh is given as -1.767%. Also, the MV4-11 %inh with MV4-11 was determined as 1.075%.
Turning to `[O-][S+]1CCN(Cc2ccc(-c3ccc4ncnc(Nc5ccc(OCc6cccc(F)c6)c(Cl)c5)c4c3)o2)CC1` [SJ000573006-1, U16708/127/1], in the assay with M07e, the M07e %inh is -1.786%. For the same compound, in the assay on CMK, the CMK %inh amounted to 4.042%. Further, the CMS %inh with CMS was 4.852%. The ML-2 %inh in the assay with ML-2 is listed as 0.7137%. Besides, the U937 %inh in the assay on U937 is -0.3031%. For the same compound, the CHRF288-11 %inh in the assay on CHRF288-11 is 12.8%. In the assay with MOLM-13, the MOLM-13 %inh is recorded as -0.7641%. In addition, in the assay on MV4-11, the MV4-11 %inh was -1.095%.
Consider `CCS(=O)(=O)c1ccc(OC)c(Nc2ncc(-c3cccc(F)c3)o2)c1` [SJ000573008-1, U15747/41/2], for which the M07e %inh in the assay with M07e was determined as 1.435%. Further, the CMK %inh in the assay with CMK was 0.9043%. The CMS %inh in the assay with CMS was 0.7614%. In the assay with ML-2, the ML-2 %inh worked out at 0.9608%. Also, in the assay on U937, the U937 %inh was 1.214%. Besides, the CHRF288-11 %inh in the assay on CHRF288-11 is on record as -0.1874%. The MOLM-13 %inh in the assay on MOLM-13 is 34.16%. Moreover, in the assay on MV4-11, the MV4-11 %inh is on record as 41.43%.
In the case of `COc1cc(Nc2ncc(-c3ccccc3)o2)cc(OC)c1OC` [SJ000573009-1, U21834/26/1], the M07e %inh in the assay on M07e stood at 25.07%. Moreover, in the assay on CMK, the CMK %inh was 106.1%. The CMS %inh with CMS is 12.03%. Besides, in the assay on ML-2, the ML-2 %inh stood at 46.26%. Also, the U937 %inh with U937 turned out to be 48.56%. The CHRF288-11 %inh with CHRF288-11 is listed as 41.65%. Besides, the MOLM-13 %inh in the assay on MOLM-13 was determined as 93.46%. Moreover, the MV4-11 %inh in the assay with MV4-11 stood at 70.39%.
With `O=S(=O)(CCNCc1ccc(-c2ccc3ncnc(Nc4ccc(OCc5cccc(F)c5)c(Cl)c4)c3c2)o1)c1ccccc1` [SJ000573010-1, U15277/78/1], in the assay on M07e, the M07e %inh is recorded as -3.622%. Further, the CMK %inh in the assay on CMK came to 1.889%. Further, in the assay with CMS, the CMS %inh was -1.695%. Moreover, in the assay with ML-2, the ML-2 %inh came out at 0.08634%. Also, the U937 %inh with U937 is 1.807%. Besides, the CHRF288-11 %inh in the assay with CHRF288-11 is -1.699%. For the same compound, in the assay on MOLM-13, the MOLM-13 %inh amounted to 2.488%. Moreover, in the assay on MV4-11, the MV4-11 %inh is -1.134%.

For the origin of these results see paper PMC6522510 (Nature Communications, 2019).
